Assay results from patent US20260272907A1, “Therapeutic Tyrosine Kinase Inhibitors for Multiple Sclerosis” (Principia Biopharma Inc., priority 2022, published 2026).

Test system: patients with relapsing multiple sclerosis
Experiment: Phase 2b dose-finding study: adverse events (TEAEs, SAEs, AESIs), safety population
Details: for Adverse event: Accidental overdose / Adverse event: Alanine aminotransferase increased / Adverse event: Alopecia / Adverse event: Back pain / Adverse event: Gastroenteritis / Adverse event: Headache / Adverse event: Muscle spasticity / Adverse event: Nasopharyngitis / Adverse event: Oropharyngeal pain / Adverse event: Peripheral edema / Adverse event: Respiratory tract infection / Adverse event: Upper respiratory tract infection: 12 weeks treatment
[1] = BTKi 5 mg (n = 33), Weeks 1 to 12
[2] = BTKi 15 mg (N = 16), Weeks 1 to 4
[3] = BTKi 15 mg (n = 32), Weeks 1 to 12
[4] = BTKi 30 mg (N = 16), Weeks 1 to 4
[5] = BTKi 30 mg (n = 33), Weeks 1 to 12
[6] = BTKi 60 mg (N = 16), Weeks 1 to 4
[7] = BTKi 60 mg (n = 32), Weeks 1 to 12
[8] = BTKi 5 (N = 32), BTK inhibitor treatment period, safety population
[9] = BTKi 15 (N = 32), BTK inhibitor treatment period, safety population
[10] = BTKi 30 (N = 33), BTK inhibitor treatment period, safety population
[11] = BTKi 60 (N = 33), BTK inhibitor treatment period, safety population

Structure (SMILES): C=CC(=O)N1CCC[C@@H](n2c(=O)n(-c3ccc(Oc4ccccc4)cc3)c3c(N)nccc32)C1 [the BTK inhibitor, (R)-1-(1-acryloylpiperidin-3-yl)-4-amino-3-(4-phenoxyphenyl)-1H-imidazo[4,5-c]pyridin-2(3H)-one]
- Any treatment-related AE [1]: 5 (15.2) n (%)
- Serious AE [1]: 0 n (%)
- AE leading to death [2]: 0
- AE leading to study discontinuation [2]: 0
- Any AE leading to study treatment discontinuation [2]: 0
- Any treatment-related AE [2]: 0
- Serious AE [2]: 0
- Adverse event: Accidental overdose (BTKi 15 mg (n = 32)): 0%
- Adverse event: Alanine aminotransferase increased (BTKi 15 mg (n = 32)): 0%
- Adverse event: Alopecia (BTKi 15 mg (n = 32)): 1 (3%)
- Adverse event: Back pain (BTKi 15 mg (n = 32)): 1 (3%)
- Adverse event: Gastroenteritis (BTKi 15 mg (n = 32)): 0%
- Adverse event: Headache (BTKi 15 mg (n = 32)): 3 (9%)
- Adverse event: Muscle spasticity (BTKi 15 mg (n = 32)): 0%
- Adverse event: Nasopharyngitis (BTKi 15 mg (n = 32)): 0%
- Adverse event: Oropharyngeal pain (BTKi 15 mg (n = 32)): 0%
- Adverse event: Peripheral edema (BTKi 15 mg (n = 32)): 0%
- Adverse event: Respiratory tract infection (BTKi 15 mg (n = 32)): 1 (3%)
- Adverse event: Upper respiratory tract infection (BTKi 15 mg (n = 32)): 2 (6%)
- AE leading to death [3]: 0 n (%)
- AE leading to study discontinuation [3]: 0 n (%)
- Any AE (4 weeks vs. placebo 12 weeks) [3]: 17 (53.1) n (%)
- Any AE leading to study treatment discontinuation [3]: 0 n (%)
- Any treatment-related AE [3]: 1 (3.1) n (%)
- Serious AE [3]: 0 n (%)
- AE leading to death [4]: 0
- AE leading to study discontinuation [4]: 0
- Any AE leading to study treatment discontinuation [4]: 0
- Any treatment-related AE [4]: 0
- Serious AE [4]: 0
- Adverse event: Accidental overdose (BTKi 30 mg (n = 33)): 0%
- Adverse event: Alanine aminotransferase increased (BTKi 30 mg (n = 33)): 1 (3%)
- Adverse event: Alopecia (BTKi 30 mg (n = 33)): 0%
- Adverse event: Back pain (BTKi 30 mg (n = 33)): 2 (6%)
- Adverse event: Gastroenteritis (BTKi 30 mg (n = 33)): 0%
- Adverse event: Headache (BTKi 30 mg (n = 33)): 1 (3%)
- Adverse event: Muscle spasticity (BTKi 30 mg (n = 33)): 1 (3%)
- Adverse event: Nasopharyngitis (BTKi 30 mg (n = 33)): 1 (3%)
- Adverse event: Oropharyngeal pain (BTKi 30 mg (n = 33)): 1 (3%)
- Adverse event: Peripheral edema (BTKi 30 mg (n = 33)): 0%
- Adverse event: Respiratory tract infection (BTKi 30 mg (n = 33)): 1 (3%)
- Adverse event: Upper respiratory tract infection (BTKi 30 mg (n = 33)): 1 (3%)
- AE leading to death [5]: 0 n (%)
- AE leading to study discontinuation [5]: 0 n (%)
- Any AE (4 weeks vs. placebo 12 weeks) [5]: 18 (54.5) n (%)
- Any AE leading to study treatment discontinuation [5]: 0 n (%)
- Any treatment-related AE [5]: 4 (12.1) n (%)
- Serious AE [5]: 0 n (%)
- AE leading to death [6]: 0
- AE leading to study discontinuation [6]: 0
- Any AE leading to study treatment discontinuation [6]: 0
- Serious AE [6]: 0
- Adverse event: Accidental overdose (BTKi 60 mg (n = 32)): 3 (9%)
- Adverse event: Alanine aminotransferase increased (BTKi 60 mg (n = 32)): 1 (3%)
- Adverse event: Alopecia (BTKi 60 mg (n = 32)): 1 (3%)
- Adverse event: Back pain (BTKi 60 mg (n = 32)): 0%
- Adverse event: Gastroenteritis (BTKi 60 mg (n = 32)): 2 (6%)
- Adverse event: Headache (BTKi 60 mg (n = 32)): 4 (13%)
- Adverse event: Muscle spasticity (BTKi 60 mg (n = 32)): 2 (6%)
- Adverse event: Nasopharyngitis (BTKi 60 mg (n = 32)): 3 (9%)
- Adverse event: Oropharyngeal pain (BTKi 60 mg (n = 32)): 1 (3%)
- Adverse event: Peripheral edema (BTKi 60 mg (n = 32)): 2 (6%)
- Adverse event: Respiratory tract infection (BTKi 60 mg (n = 32)): 1 (3%)
- Adverse event: Upper respiratory tract infection (BTKi 60 mg (n = 32)): 1 (3%)
- AE leading to death [7]: 0 n (%)
- AE leading to study discontinuation [7]: 0 n (%)
- Any AE (4 weeks vs. placebo 12 weeks) [7]: 16 (50.0) n (%)
- Any AE leading to study treatment discontinuation [7]: 0 n (%)
- Any treatment-related AE [7]: 7 (21.9) n (%)
- Serious AE [7]: 1 (3.1) n (%)
- Participants with any TEAE [8]: 16 (50.0) n (%)
- Participants with any TEAE leading to death [8]: 0 n (%)
- Participants with any TEAE leading to study treatment discontinuation [8]: 0 n (%)
- Participants with any severe TEAE [8]: 0 n (%)
- Participants with any treatment emergent SAE [8]: 0 n (%)
- Participants with any treatment-related TEAE [8]: 6 (18.8) n (%)
- Participants with study discontinuation due to any TEAE [8]: 0 n (%)
- Participants with treatment emergent SAE(s): Any class [8]: 0 n(%)
- Participants with treatment emergent SAE(s): Multiple sclerosis relapse [8]: 0 n(%)
- Participants with treatment emergent SAE(s): NERVOUS SYSTEM DISORDERS [8]: 0 n(%)
- Participants with any TEAE leading to death (BTKi 5 (N = 32), Weeks 1 to 4): 0 n (%)
- Participants with any TEAE leading to study treatment discontinuation (BTKi 5 (N = 32), Weeks 1 to 4): 0 n (%)
- Participants with any severe TEAE (BTKi 5 (N = 32), Weeks 1 to 4): 0 n (%)
- Participants with any treatment emergent SAE (BTKi 5 (N = 32), Weeks 1 to 4): 0 n (%)
- Participants with study discontinuation due to any TEAE (BTKi 5 (N = 32), Weeks 1 to 4): 0 n (%)
- Participants with any TEAE [9]: 18 (56.3) n (%)
- Participants with any TEAE leading to death [9]: 0 n (%)
- Participants with any TEAE leading to study treatment discontinuation [9]: 0 n (%)
- Participants with any severe TEAE [9]: 0 n (%)
- Participants with any treatment emergent SAE [9]: 0 n (%)
- Participants with any treatment-related TEAE [9]: 3 (9.4) n (%)
- Participants with study discontinuation due to any TEAE [9]: 0 n (%)
- Participants with treatment emergent SAE(s): Any class [9]: 0 n(%)
- Participants with treatment emergent SAE(s): Multiple sclerosis relapse [9]: 0 n(%)
- Participants with treatment emergent SAE(s): NERVOUS SYSTEM DISORDERS [9]: 0 n(%)
- Participants with any TEAE leading to death (BTKi 15 (N = 32), Weeks 1 to 4): 0 n (%)
- Participants with any TEAE leading to study treatment discontinuation (BTKi 15 (N = 32), Weeks 1 to 4): 0 n (%)
- Participants with any severe TEAE (BTKi 15 (N = 32), Weeks 1 to 4): 0 n (%)
- Participants with any treatment emergent SAE (BTKi 15 (N = 32), Weeks 1 to 4): 0 n (%)
- Participants with study discontinuation due to any TEAE (BTKi 15 (N = 32), Weeks 1 to 4): 0 n (%)
- Participants with any TEAE [10]: 17 (51.5) n (%)
- Participants with any TEAE leading to death [10]: 0 n (%)
- Participants with any TEAE leading to study treatment discontinuation [10]: 0 n (%)
- Participants with any severe TEAE [10]: 1 (3.0) n (%)
- Participants with any treatment emergent SAE [10]: 1 (3.0) n (%)
- Participants with any treatment-related TEAE [10]: 4 (12.1) n (%)
- Participants with study discontinuation due to any TEAE [10]: 0 n (%)
- Participants with treatment emergent SAE(s): Any class [10]: 1 (3.0) n(%)
- Participants with treatment emergent SAE(s): Multiple sclerosis relapse [10]: 1 (3.0) n(%)
- Participants with treatment emergent SAE(s): NERVOUS SYSTEM DISORDERS [10]: 1 (3.0) n(%)
- Participants with any TEAE leading to death (BTKi 30 (N = 33), Weeks 1 to 4): 0 n (%)
- Participants with any TEAE leading to study treatment discontinuation (BTKi 30 (N = 33), Weeks 1 to 4): 0 n (%)
- Participants with any severe TEAE (BTKi 30 (N = 33), Weeks 1 to 4): 0 n (%)
- Participants with any treatment emergent SAE (BTKi 30 (N = 33), Weeks 1 to 4): 0 n (%)
- Participants with study discontinuation due to any TEAE (BTKi 30 (N = 33), Weeks 1 to 4): 0 n (%)
- Participants with any TEAE leading to death [11]: 0 n (%)
- Participants with any TEAE leading to study treatment discontinuation [11]: 0 n (%)
- Participants with any severe TEAE [11]: 0 n (%)
- Participants with any treatment emergent SAE [11]: 0 n (%)
- Participants with any treatment-related TEAE [11]: 2 (6.1) n (%)
- Participants with study discontinuation due to any TEAE [11]: 0 n (%)
- Participants with treatment emergent SAE(s): Any class [11]: 0 n(%)
- Participants with treatment emergent SAE(s): Multiple sclerosis relapse [11]: 0 n(%)
- Participants with treatment emergent SAE(s): NERVOUS SYSTEM DISORDERS [11]: 0 n(%)
- Participants with any TEAE leading to death (BTKi 60 (N = 33), Weeks 1 to 4): 0 n (%)
- Participants with any TEAE leading to study treatment discontinuation (BTKi 60 (N = 33), Weeks 1 to 4): 0 n (%)
- Participants with any severe TEAE (BTKi 60 (N = 33), Weeks 1 to 4): 0 n (%)
- Participants with any treatment emergent SAE (BTKi 60 (N = 33), Weeks 1 to 4): 0 n (%)
- Participants with study discontinuation due to any TEAE (BTKi 60 (N = 33), Weeks 1 to 4): 0 n (%)
- AESIs (alanine aminotransferase increased >3×ULN) reported in the study (all dose groups): two
- TEAEs leading to permanent treatment discontinuation (all dose groups): no TEAEs leading to permanent treatment discontinuation
- Upper respiratory tract infection (TEAE) (in each treatment group (5, 15, 30, 60 mg), Weeks 1 to 4): 1 case
- Deaths (whole study, all dose groups): No deaths
